From patent US20080146593A1, “Substituted 5-Phenyl Pyrimidines I In Therapy” (Basf Aktiengesellschaft, priority 2005, published 2008) come the findings set out here.

For this assay, the system named is HeLa cells. Description: Measurement of the cell cycle inhibition in HeLa cells. It counts as cell-based. The conditions noted are these: HeLa B cells, 20 h incubation with compound; FACS ratio G0/G1 to G2/M vs DMSO; concentration at which 50% of cells are in cell cycle arrest. Summed up:
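HeLa B cells exposed 20 h to compounds (1×10^−9 to 1×10^−6 M final), then lysed in RNase/propidium iodide buffer and analysed by FACS. G0/G1 to G2/M ratio compared with DMSO controls; IC50 is concentration giving 50% of cells in cell cycle arrest.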
With `CC1CCN(c2nc(-c3nccs3)nc(Cl)c2-c2c(F)cc(F)cc2F)CC1` [Example 39], the IC50 turned out to be 0.026 µM.

As to `Cc1nc(C)n(-c2nc(Cl)c(-c3c(F)cccc3Cl)c(N3CCC(C)CC3)n2)n1` [Example 85], the IC50 is 0.021 µM.

Take `C[C@H](Nc1nc(-n2cc(I)cn2)nc(Cl)c1-c1c(F)cc(F)cc1F)C(F)(F)F` [Example 34]: the IC50 came to 0.025 µM.

In the case of `CC(C)[C@H](C)Nc1nc(-c2nccs2)nc(Cl)c1-c1c(F)cccc1Cl` [Example 136], the IC50 amounted to 0.029 µM.

`Cc1ccn(-c2nc(Cl)c(-c3c(F)cc(F)cc3F)c(N[C@H](C)C(C)C)n2)n1` [Example 92]: the IC50 was determined as 0.026 µM.

Take `Cc1ccnc(-c2nc(Cl)c(-c3c(F)cc(F)cc3F)c(N[C@@H](C)C(F)(F)F)n2)c1` [Example 14]: the IC50 is 0.014 µM.

For `CON=C(N)c1nc(Cl)c(-c2cc(F)ccc2Cl)c(N[C@@H](C)C(F)(F)F)n1` [Example 221], the IC50 amounted to 0.03 µM.

In the case of `CON=C(N)c1nc(Cl)c(-c2c(F)cccc2F)c(N[C@@H](C)C(C)C)n1` [Example 196], the IC50 worked out at 0.038 µM.

As for `C=CCN(C)c1nc(-n2cc(Br)cn2)nc(Cl)c1-c1c(F)cc(F)cc1F` [Example 123], the IC50 was determined as 0.049 µM.

As for `Cc1nc(C)n(-c2nc(Cl)c(-c3c(F)cccc3F)c(N3CCC(C)CC3)n2)n1` [Example 118], the IC50 is 0.032 µM.

Regarding `C[C@H](Nc1nc(-n2cncn2)nc(Cl)c1-c1c(F)cc(F)cc1F)C(F)(F)F` [Example 8], the half-inhibitory concentration (IC50) was 0.013 µM.

With `CON=C(N)c1nc(Cl)c(-c2ccc(F)cc2Cl)c(N2CCCC2C)n1` (stereo not shown) [Example 170], the IC50 came to 0.059 µM.

Consider `CC(C)Nc1nc(-n2ccc(C(F)(F)F)n2)nc(Cl)c1-c1c(F)cc(F)cc1F` [Example 16], for which the IC50 was 0.046 µM.

Regarding `Cc1nc(C)n(-c2nc(Cl)c(-c3c(F)cc(F)cc3F)c(N3CCCC3C)n2)n1` (stereo not shown) [Example 77], the IC50 turned out to be 0.035 µM.

`COc1cc(F)c(-c2c(Cl)nc(C(N)=O)nc2N[C@@H](C)C(C)C)c(F)c1` [Example 199]: the IC50 worked out at 0.033 µM.

For the molecule `Fc1cc(F)c(-c2c(Cl)nc(-n3cc(Br)cn3)nc2N2CCCCC2)c(F)c1` [Example 53], the 50% inhibitory concentration (IC50) was determined as 0.026 µM.

One may read the IC50 as the concentration that inhibits the measured activity by half.
